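How tested: cells in 96-well plates exposed to compound for 48 hours at five concentrations. TGI denotes the concentration required for complete inhibition of growth.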
Assays:
Test in all cases: DTP human tumour cell line panel, 48 h
SNB-75 CNS = system: SNB-75 CNS
RXF 393 renal = system: RXF 393 renal
SK-MEL-2 melanoma = system: SK-MEL-2 melanoma
HCC-2998 colon = system: HCC-2998 colon
OVCAR-3 ovarian = system: OVCAR-3 ovarian
OVCAR-8 ovarian = system: OVCAR-8 ovarian
A498 renal = system: A498 renal
K-562 leukemia = system: K-562 leukemia
HS 578T breast = system: HS 578T breast
TK-10 renal = system: TK-10 renal

Measured: TGI

NN=C(CC(O)(C(F)(F)Cl)C(F)(F)Cl)CC(O)(C(F)(F)Cl)C(F)(F)Cl
> 10 µM: SNB-75 CNS | RXF 393 renal | SK-MEL-2 melanoma | HCC-2998 colon | OVCAR-3 ovarian | OVCAR-8 ovarian | A498 renal | K-562 leukemia | HS 578T breast | TK-10 renal

Source: PubChem BioAssay (NCI)
